Test results published in the NIST ThermoML archive (doi:10.1016/j.fluid.2016.06.011).

Details: Liquid; for vapor or sublimation pressure: Closed cell (Static) method; for mass density: 101.33 kPa, Vibrating tube method

OCC(F)(F)C(F)(F)C(F)(F)C(F)(F)F [2,2,3,3,4,4,5,5,5-nonafluoropentan-1-ol]
Details | mass density [kg/m3] | vapor or sublimation pressure [kPa]
278.14 K | – | 0.2236
278.15 K | 1689.58 | –
279.15 K | 1687.71 | –
280.15 K | 1685.83 | –
281.15 K | 1683.95 | –
282.15 K | 1682.07 | –
283.1 K | – | 0.3363
283.15 K | 1680.18 | –
284.15 K | 1678.29 | –
285.15 K | 1676.39 | –
286.15 K | 1674.48 | –
287.15 K | 1672.58 | –
288.07 K | – | 0.502
288.15 K | 1670.67 | –
289.15 K | 1668.76 | –
290.15 K | 1666.84 | –
291.15 K | 1664.91 | –
292.15 K | 1662.98 | –
293.06 K | – | 0.7329
293.15 K | 1661.05 | –
294.15 K | 1659.11 | –
295.15 K | 1657.16 | –
296.15 K | 1655.22 | –
297.15 K | 1653.26 | –
298.09 K | – | 1.07
298.15 K | 1651.3 | –
299.15 K | 1649.34 | –
300.15 K | 1647.37 | –
301.15 K | 1645.39 | –
302.15 K | 1643.41 | –
303.1 K | – | 1.531
303.15 K | 1641.42 | –
304.15 K | 1639.43 | –
305.15 K | 1637.43 | –
306.15 K | 1635.43 | –
307.15 K | 1633.42 | –
308.06 K | – | 2.152
308.15 K | 1631.4 | –
309.15 K | 1629.38 | –
310.15 K | 1627.35 | –
311.15 K | 1625.32 | –
312.15 K | 1623.28 | –
313.02 K | – | 2.979
313.15 K | 1621.23 | –
314.15 K | 1619.17 | –
315.15 K | 1617.12 | –
316.15 K | 1615.05 | –
317.15 K | 1612.98 | –
317.98 K | – | 4.071
318.15 K | 1610.9 | –
319.15 K | 1608.81 | –
320.15 K | 1606.72 | –
321.15 K | 1604.62 | –
322.15 K | 1602.52 | –
322.99 K | – | 5.496
323.15 K | 1600.4 | –
324.15 K | 1598.29 | –
325.15 K | 1596.16 | –
326.15 K | 1594.03 | –
327.15 K | 1591.88 | –
327.95 K | – | 7.315
328.15 K | 1589.74 | –
329.15 K | 1587.59 | –
330.15 K | 1585.42 | –
331.15 K | 1583.26 | –
332.15 K | 1581.08 | –
333.15 K | 1578.9 | –
334.15 K | 1576.7 | –
335.15 K | 1574.51 | –
336.15 K | 1572.3 | –
337.15 K | 1570.09 | –
338.15 K | 1567.87 | –
339.15 K | 1565.64 | –
340.15 K | 1563.41 | –
341.15 K | 1561.17 | –
342.15 K | 1558.91 | –
343.15 K | 1556.65 | –
344.15 K | 1554.39 | –
345.15 K | 1552.11 | –
346.14 K | 1549.83 | –
347.15 K | 1547.45 | –
348.15 K | 1545.15 | –
349.15 K | 1542.85 | –
350.15 K | 1540.53 | –
351.15 K | 1538.2 | –
352.15 K | 1535.87 | –
353.15 K | 1533.52 | –

OCC(F)(F)C(F)(F)C(F)(F)F [2,2,3,3,4,4,4-heptafluorobutanol]
Details | mass density [kg/m3] | vapor or sublimation pressure [kPa]
278.14 K | – | 0.7213
278.15 K | 1633.59 | –
279.15 K | 1631.74 | –
280.15 K | 1629.87 | –
281.15 K | 1627.99 | –
282.15 K | 1626.11 | –
283.1 K | – | 1.047
283.15 K | 1624.23 | –
284.15 K | 1622.34 | –
285.15 K | 1620.44 | –
286.15 K | 1618.54 | –
287.15 K | 1616.63 | –
288.08 K | – | 1.495
288.15 K | 1614.73 | –
289.15 K | 1612.81 | –
290.15 K | 1610.89 | –
291.15 K | 1608.97 | –
292.15 K | 1607.04 | –
293.08 K | – | 2.117
293.15 K | 1605.11 | –
294.15 K | 1603.16 | –
295.15 K | 1601.22 | –
296.15 K | 1599.26 | –
297.15 K | 1597.31 | –
298.1 K | – | 2.965
298.15 K | 1595.34 | –
299.15 K | 1593.37 | –
300.15 K | 1591.39 | –
301.15 K | 1589.41 | –
302.15 K | 1587.41 | –
303.07 K | – | 4.086
303.15 K | 1585.41 | –
304.15 K | 1583.41 | –
305.15 K | 1581.4 | –
306.15 K | 1579.38 | –
307.15 K | 1577.36 | –
308.04 K | – | 5.551
308.15 K | 1575.32 | –
309.14 K | 1573.28 | –
310.15 K | 1571.23 | –
311.15 K | 1569.18 | –
312.15 K | 1567.12 | –
313.03 K | – | 7.473
313.14 K | 1565.05 | –
314.15 K | 1562.97 | –
315.15 K | 1560.89 | –
316.15 K | 1558.79 | –
317.15 K | 1556.69 | –
317.98 K | – | 9.905
318.15 K | 1554.58 | –
319.14 K | 1552.46 | –
320.15 K | 1550.34 | –
321.15 K | 1548.2 | –
322.14 K | 1546.06 | –
322.95 K | – | 13.14
323.14 K | 1543.91 | –
324.14 K | 1541.75 | –
325.15 K | 1539.58 | –
326.14 K | 1537.4 | –
327.14 K | 1535.21 | –
327.91 K | – | 17.26
328.15 K | 1533.02 | –
329.15 K | 1530.81 | –
330.14 K | 1528.6 | –
331.14 K | 1526.38 | –
332.15 K | 1524.14 | –
333.14 K | 1521.91 | –
334.14 K | 1519.66 | –
335.14 K | 1517.4 | –
336.14 K | 1515.13 | –
337.14 K | 1512.85 | –
338.14 K | 1510.57 | –
339.14 K | 1508.28 | –
340.14 K | 1505.97 | –
341.14 K | 1503.65 | –
342.14 K | 1501.33 | –
343.14 K | 1498.99 | –
344.15 K | 1496.65 | –
345.15 K | 1494.29 | –
346.15 K | 1491.93 | –
347.15 K | 1489.55 | –
348.14 K | 1487.16 | –
349.14 K | 1484.77 | –
350.14 K | 1482.37 | –
351.14 K | 1479.94 | –
352.14 K | 1477.52 | –
353.14 K | 1475.08 | –
